# Test system: Botrytis cinerea
# Experiment: Botrytis cinerea fruit rot on wounded apple, post-harvest spray (Example 2)
# Assay type: in vivo
compound,measurement,setting,value
C[C@@H]1C/C=C/C=C/C=C/C=C/[C@H](O[C@@H]2O[C@H](C)[C@@H](O)[C@H](N)[C@@H]2O)C[C@@H]2O[C@](O)(C[C@@H](O)C[C@H]3O[C@@H]3/C=C/C(=O)O1)C[C@H](O)[C@H]2C(=O)O [natamycin],"Rot on apples, comparison in words",five and six days after inoculation,clearly lower
same,Botrytis fruit rot symptoms (in words),two days after inoculation,did not show any symptoms

# From US9635855B2, “Polyelectrolyte complexes for biocide enhancement” (priority 2012, dated 2017)
